Patent publication US6635434B1, “Immunoassay for pesticides and their degradation products” (Exiqon A/S, priority 1999, dated 2003)
Several values for one entry are separate records, joined by “and”; a condition that tells them apart may be missing. Identical values can stand only once. Entries after “also recorded” stand apart in the source; their conditions may differ.

Tests used:
antibody (HYB 273-1) [1] = test: Competitive ELISA for BAM on plates covalently (photocoupled) coated with BAM-OA-AQ; type: binding, mice; details: for cross-reactivity (IC50 of BAM divided by IC50 of analyte, times 100): analytes assayed up to 100 mg/L, antibody HYB 273-1
Experimental: A PolySorp™ microtitre plate was filled by a stationary dispensor with 200 μL/well BAM-OA-AQ (50 ng/mL) in 0.1×PBS. After being exposed to uv-light (300-400 nm) at 34° C. for 30 min, the plate was washed 4 times with de-ionised water and dried 30 min at 37° C. The plate was either used immediately or sealed with tape lid and stored at room temperature in the dark until use.
(§1) Standards (in Milli-Q® water) and samples (150 μL) were added to the hapten-coated plate followed by the addition of 50 μL antibody (HYB 273-1) diluted in 10×PBST (66.7 ng/mL). The plate was incubated for 1 hour. After washing 4 times with PBST, the plate was incubated with 200 μL/well RαM^HRP diluted 1:1000 in PBST. After a final 6 times wash with PBST, 200 μL/well TMB-Plus was added. The colour development was stopped after 10 minutes by adding 50 μL/well 1 M H2SO4 and the absorbance was read at 450 nm.
(§2) The standards were used to generate a semi-log graph based on the 4-parameter-logistic method (Rodbard, 1974: equation 1), followed by calculation of sample values. [formula]
(§3) To compare the performances of the two ELISA methods with antigen coated by passive adsorption to that by covalent immobilisation respectively, standard curves were generated with BAM standards ranging from 0.0156 to 2 μg/L on each surface using the identical assay procedures. The data were normalised by the % B/B0 transformation (eq 2). The normalised data were then plotted vs. BAM concentration and the four-parameter-logistic equation (eq 1) was fitted to the experimental points (FIG. 3).
As to detection limits (defined as the analyte concentration giving a 15% decrease in maximum signal: DL15) and sensitivity (defined as the analyte concentration giving a 50% decrease in maximum signal: IC50) the two surface performs almost equally. […] Further development of the BAM assay was therefore based on this technology and the following results are generated on PolySorp™ microtire plates covalently coated with BAM-OA-AQ as described herein in the Preparation of plates section

[2] = Immunisation of mice with hapten-polymer carrier complex, raising of monoclonal antibodies; type: in vivo; details: hapten coupled to polymer carrier (ovalbumin)
Experimental: Live mice were primed for immunisation by an intraperitoneal injection of live BCG-vaccine one month before immunisation. The antigen (hapten-OA complex), once adsorbed onto Al(OH)3, was injected intraperitonally and test bleeding were collected. When antibody titre's exceeded 1:2000, mice were considered ready for fusion and the method described by Köhler and Milstein (1975) was employed with minor modifications. Monoclonal antibodies were selected on basis of titre, affinity and specificity. Selected clones were recloned until monoclonality and stored frozen at −80° C.
Ten to twelve weeks old female Balb/cxCF1 F1-hybrid mice were used for immunisation. One month before immunisation they were primed with 0.2 mL live BCG-vaccine intraperitonally. The antigen (25×carrier/immunogen) was absorbed onto Al(OH)3 as an adjuvant. The total volume of vaccine per immunisation was 200 μL, containing 25× of antigen and […] of adjuvant. The antigen was injected intraperitonally with 2-weeks intervals. Test bleedings were collected 10 days after immunisation and assayed in ELISA.
When antibody titre's exceeded 1:2000, mice were regarded ready for fusion. The procedure as described by Köhler and Milstein (1975) was employed with minor modifications. Monoclonal antibodies were selected on basis of titre, affinity and specificity. […]

antibody (HYB 273-1) [3] = test: Competitive ELISA for BAM on plates coated with BAM-OA by passive adsorption; type: binding, mice; details: FIG. 3B
Experimental: i) Passive adsorption: A MaxiSorp™ microtitre plate was filled by a stationary dispensor with 200 μL/well BAM-OA (16.7 ng/mL) in coating buffer. After coating over night at 4° C. the plate was washed 4 times with de-ionised water and dried 30 min at 37° C. The plate was either used immediately or sealed with tape lid and stored at room temperature in the dark until use.
as §1, §2
as §3, with “The normalised data were then plotted vs. BAM concentration and the four-parameter-logistic equation (eq 1) was fitted to the experimental points (FIG. 3).” left out

Compound | cross-reactivity (IC50 of BAM divided by IC50 of analyte, times 100) (antibody (HYB 273-1) [1]) | immunoresponse on immunisation with the hapten [2] | further results
N#Cc1c(Cl)cccc1Cl [dichlorbenil, dichlorobenzonitrile] | no measurable cross-reactivity | – | –
NC(=O)c1ccc(Cl)cc1Cl [2,4-dichlorobenzamide] | 3.8% | – | –
N-(5-carboxypentyl)-2,4-dichloro-3-amido aniline [EQ-0031] | – | good responses were generated; also recorded: generated good immunoresponse | –
O=C(CCCCCNC(=O)c1c(Cl)cccc1Cl)ON1C(=O)CCC1=O [EQ-0025, succinimidyl-N-(2,6-dichlorobenzoyl)-6-amino-hexanoate] | – | able to induce strong immunoresponse | –
NC(=O)c1c(Cl)cccc1Cl [BAM, 2,6-dichlorobenzamide] | – | – | IC50 (analyte concentration giving a 50% decrease in maximum signal) (antibody (HYB 273-1) [1]; covalently immobilised plates (PolySorp, photocoupled), FIG. 3A): 0.189 ng/mL and 0.19 ng/mL; DL15 (detection limit, analyte concentration giving a 15% decrease in maximum signal) (antibody (HYB 273-1) [1]; photo catalysed covalent immobilisation, FIG. 3A): 0.02 µg/L; DL15 (detection limit, analyte concentration giving a 15% decrease in maximum signal) (antibody (HYB 273-1) [3]; passive adsorption): 0.045 µg/L; IC50 (analyte concentration giving a 50% decrease in maximum signal) (antibody (HYB 273-1) [3]; passively adsorbed plates (MaxiSorp)): 0.144 ng/mL and 0.14 ng/mL
